Experimental data: US20030044356A1, “Composition for nasal solution sprays having effective component of 1,2,3,9-tetrahydro-9-methyl-3-[(2-methyl-1H-imidazol-1-yl)methyl]-4H-carbazol-4-one)” (priority 2001, published 2003)
Read-outs that look alike come from different tables or passages of the source.

Columns and labels:
[1] = Permeation through excised duodenal mucosa; assay type: in vitro ADME, rabbit
Text: (§1) The results are shown in below Table 2.

[2] = Permeation through excised rectal mucosa; assay type: in vitro ADME, rabbit
Text: as §1

[3] = Permeation through excised colonic mucosa; assay type: in vitro ADME, rabbit
Text: as §1

[4] = Comparison of bioavailability after nasal, intravenous and oral administration; assay type: in vivo, Sprague-Dawley male rats; details: rats, 2 mg/kg; for Cmax / Tmax / AUC(0-t): male, Sprague-Dawley, rat, in vivo; for AUC(0-t): read-out: AUC0-2hr
Procedure: Twenty four (24) white rats (body weight 250-300 g, Sprague-Dawley male rats) were classified into 3 groups, namely 6, 11 and 7 rats. After nasal, intravenous and oral administration to each group of rats, the bioavailability according to the different routes of administration was compared.
Ondansetron hydrochloride was dissolved in the composition obtained in Formulation Example for nasal administration, in 0.9% saline for intravenous administration, and in purified water for oral administration as vehicles, respectively. Each 2 mg/kg of the solutions was administered thereby. The blood samples were collected at the predetermined time intervals to analyze the concentration of ondansetron hydrochloride in the plasma. The bioavailibity parameters were calculated from the assay results.

[5] = assay type: in vitro ADME; details: female, New Zealand White, rabbit
Text: as §1

[6] = Test for intranasal stability of active ingredient in nasal mucosa extract; details: 37° C.; for Residual Concentration: 200 μg/mL added
Procedure: The fresh nasal mucosa excised from a rabbit (body weight 3.0 kg, New Zealand White female rabbit) was mounted to the Valia-Chien permeation system maintained at a constant temperature of 37° C. Each of the donor and receptor half-cells was filled with each 3.5 mL of saline, maintained at the constant temperature for 4 hours while stirring with a magnetic star-head bar, and then both extracts from the half-cells were combined and used as nasal mucosa extracts.
Ondansetron hydrochloride (200 μg/mL) was added to the obtained nasal mucosa extract, and then maintained at the temperature of 37° C. for 4 hours while gently shaking in order to confirm the physiochemical or enzymatic stability of ondansetron hydrochloride in a nasal cavity.

[7] = inhaled or intranasal, nasal, in composition of Formulation Example

Cc1nccn1CC1CCc2c(c3ccccc3n2C)C1=O.Cl.O.O (stereo not shown) [ondansetron hydrochloride, 1,2,3,9-tetrahydro-9-methyl-3-[(2-methyl-1H-imidazol-1-yl)methyl]-4H-carbazol-4-one hydrochloride dihydrate]
Cumulative Amounts ([1]; 0.5 hr): 14.8 ± 3.5 μg/cm^2
Cumulative Amounts ([1]; 1.0 hr): 35.4 ± 8.2 μg/cm^2
Cumulative Amounts ([1]; 2.0 hr): 94.6 ± 23.9 μg/cm^2
Cumulative Amounts ([1]; 4.0 hr): 280.1 ± 43.2 μg/cm^2
Cumulative Amounts ([1]; 6.0 hr): 453.1 ± 36.3 μg/cm^2
Cumulative Amounts ([2]; 0.5 hr): 6.7 ± 0.1 μg/cm^2
Cumulative Amounts ([2]; 1.0 hr): 9.6 ± 0.9 μg/cm^2
Cumulative Amounts ([2]; 2.0 hr): 19.3 ± 5.8 μg/cm^2
Cumulative Amounts ([2]; 4.0 hr): 54.1 ± 6.7 μg/cm^2
Cumulative Amounts ([2]; 6.0 hr): 164.2 ± 9.2 μg/cm^2
Cumulative Amounts ([3]; 0.5 hr): 14.3 ± 2.2 μg/cm^2
Cumulative Amounts ([3]; 1.0 hr): 36.5 ± 7.8 μg/cm^2
Cumulative Amounts ([3]; 2.0 hr): 112.1 ± 14.6 μg/cm^2
Cumulative Amounts ([3]; 4.0 hr): 294.8 ± 14.7 μg/cm^2
Cumulative Amounts ([3]; 6.0 hr): 438.9 ± 27.2 μg/cm^2
Cmax [4, 7]: 49.4 ± 18.7 ng/mL
Tmax [4, 7]: 9.4 min
AUC(0-t) [4, 7]: 53.2 ± 9.5 ng·h/mL
AUC(0-t) ([4]; IV injection, in 0.9% saline): 51.1 ± 7.4 ng·h/mL
Cmax ([4]; oral, in purified water): 29.7 ± 10.6 ng/mL
Tmax ([4]; oral, in purified water): 11.8 min
AUC(0-t) ([4]; oral, in purified water): 24.9 ± 12.6 ng·h/mL
AUC0-2 hr in nasal administration higher than that in oral administration [4]: 2.1 times
Cmax in oral administration lower than that in nasal administration [4]: 1.7 times
Cumulative Amounts ([5]; 0.333 hr): 68.2 ± 4.7 μg/cm^2
permeation rate through nasal mucosa relative to colonic mucosa ([5]; 30 min): 7.5 times
permeation rate through nasal mucosa relative to duodenal mucosa ([5]; 30 min): 7.2 times
permeation rate through nasal mucosa relative to rectal mucosa ([5]; 30 min): 15.8 times
Cumulative Amounts ([5]; 0.5 hr): 106.8 ± 14.9 μg/cm^2
Cumulative Amounts ([5]; 1 hr): 180.5 ± 12.4 μg/cm^2
Cumulative Amounts ([5]; 1.5 hr): 261.5 ± 15.1 μg/cm^2
Cumulative Amounts ([5]; 2 hr): 289.3 ± 23.5 μg/cm^2
Cumulative Amounts ([5]; 3 hr): 414.6 ± 22.6 μg/cm^2
Cumulative Amounts ([5]; 4 hr): 559.4 ± 28.2 μg/cm^2
Residual Concentration ([6]; 0 hr): 198.6 ± 1.3 µg/mL
Residual Concentration ([6]; 1 hr): 199.0 ± 5.2 µg/mL
Residual Concentration ([6]; 2 hr): 203.5 ± 3.0 µg/mL
Residual Concentration ([6]; 3 hr): 196.9 ± 0.6 µg/mL
Residual Concentration ([6]; 4 hr): 197.9 ± 9.6 µg/mL
degradation in nasal mucosa extract ([6]; for 4 hours): not nearly degraded
